Test system: WT SARS-CoV-2 or OTS4-5-7-8 in VeroE6/TMPRSS2 cells
Format: cell-based

## CC(C)C(=O)OC[C@H]1O[C@@H](n2ccc(NO)nc2=O)[C@H](O)[C@@H]1O [molnupiravir]
  number of infectious virus particles in a TCID50 virus assay on adding a mutagen: reduced the number of infectious virus particles
